Measurements as given in US20240190880A1 (THE REGENTS OF THE UNIVERSITY OF MICHIGAN, priority 2021, published 2024).
Where two headings read alike, the source gives them in different places.

Biological target: T1, ER (Homo sapiens, UniProt P03372)
T1 construct: host or cells: T47D and MCF7 human breast cancer cells
T1 sequence (P03372 1-595): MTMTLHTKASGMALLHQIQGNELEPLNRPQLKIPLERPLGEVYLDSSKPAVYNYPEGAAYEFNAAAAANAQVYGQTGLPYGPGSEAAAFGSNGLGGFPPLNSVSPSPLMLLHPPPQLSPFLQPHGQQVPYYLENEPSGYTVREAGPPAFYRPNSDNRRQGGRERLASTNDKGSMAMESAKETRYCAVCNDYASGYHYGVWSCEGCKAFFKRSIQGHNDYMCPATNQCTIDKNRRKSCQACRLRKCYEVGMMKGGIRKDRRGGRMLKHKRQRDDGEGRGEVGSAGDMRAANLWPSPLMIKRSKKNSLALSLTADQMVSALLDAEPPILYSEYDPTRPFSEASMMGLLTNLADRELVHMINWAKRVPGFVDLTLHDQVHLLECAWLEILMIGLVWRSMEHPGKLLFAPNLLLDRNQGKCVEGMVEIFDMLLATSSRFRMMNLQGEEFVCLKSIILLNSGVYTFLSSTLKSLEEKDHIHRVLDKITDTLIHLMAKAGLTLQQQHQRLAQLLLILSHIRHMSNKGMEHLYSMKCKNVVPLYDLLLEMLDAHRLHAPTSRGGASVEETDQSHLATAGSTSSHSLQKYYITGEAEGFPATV
Assay: ER degradation activity, in-cell western blot analysis in T47D cells
Type: cell-based
Method in brief: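 Cells were seeded overnight, exposed to diluted compounds for 16 hours, then stained with primary antibodies and with infrared-labelled secondary antibodies (1:1000, 1 h RT). Plates were scanned on a CLX reader, and ER levels were normalised to DMSO-treated wells.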

[1] = 16 hours, Table A does not say which cell line (T47D or MCF7), read-out: Potency (DC50)
[2] = compounds 16 hours, Table A does not say whether T47D or MCF7, read-out: Potency (DC50)

| SMILES | DC50 [1] [nM] | DC50 [2] [nM] |
| --- | --- | --- |
| C[C@@H]1Cc2c([nH]c3ccccc23)[C@@H](c2c(F)cc(N3CC(C(=O)N4CCC(CN5Cc6cc7c(cc6C5)C(=O)N(C5CCC(=O)NC5=O)C7=O)CC4)C3)cc2F)N1CC(F)F (stereo partly drawn) [E 121, 6-((1-(1-(4-((1R,3R)-2-(2,2-difluoroethyl)-3-methyl-2,3,4,9-tetrahydro-1H-pyrido[3,4-b]indol-1-yl)-3,5-difluorophenyl)azetidine-3-carbonyl)piperidin-4-yl)methyl)-2-(2,6-dioxopiperidin-3-yl)-6,7-dihydropyrrolo[3,4-f]isoindole-1,3(2H,5H)-dione] | < 10 | – |
| C[C@@H]1Cc2c([nH]c3ccccc23)[C@@H](c2c(F)cc(N3CCC(N4Cc5cc6c(cc5C4)C(=O)N(C4CCC(=O)NC4=O)C6=O)CC3)cc2F)N1CC(F)F (stereo partly drawn) [E 88, 6-(1-(4-((1R,3R)-2-(2,2-difluoroethyl)-3-methyl-2,3,4,9-tetrahydro-1H-pyrido[3,4-b]indol-1-yl)-3,5-difluorophenyl)piperidin-4-yl)-2-(2,6-dioxopiperidin-3-yl)-6,7-dihydropyrrolo[3,4-f]isoindole-1,3(2H,5H)-dione] | > 100 | – |
| O=C1CCC(N2C(=O)c3cc4c(cc3C2=O)CN([C@H]2CC[C@H](C(=O)N3CC(Oc5ccc([C@H]6c7ccc(O)cc7CC[C@H]6c6ccccc6)cc5)C3)CC2)C4)C(=O)N1 (stereo partly drawn) [E 385, 2-(2,6-dioxopiperidin-3-yl)-6-((1S,4r)-4-(3-(4-((1S,2R)-6-hydroxy-2-phenyl-1,2,3,4-tetrahydronaphthalen-1-yl)phenoxy)azetidine-1-carbonyl)cyclohexyl)-6,7-dihydropyrrolo[3,4-f]isoindole-1,3(2H,5H)-dione] | < 10 | – |
| C[C@@H]1Cc2cc(O)ccc2[C@@H](c2ccc(C(=O)N3CC4(CCN(C(=O)CN5Cc6cc7c(cc6C5)C(=O)N(C5CCC(=O)NC5=O)C7=O)CC4)C3)cc2)N1CC(F)F (stereo partly drawn) [E 459, 6-(2-(2-(4-((1R,3R)-2-(2,2-difluoroethyl)-6-hydroxy-3-methyl-1,2,3,4-tetrahydroisoquinolin-1-yl)benzoyl)-2,7-diazaspiro[3.5]nonan-7-yl)-2-oxoethyl)-2-(2,6-dioxopiperidin-3-yl)-6,7-dihydropyrrolo[3,4-f]isoindole-1,3(2H,5H)-dione] | – | < 10 |
| C[C@@H]1Cc2c([nH]c3ccccc23)[C@@H](c2ncc(C3CCC(C(=O)N4CCC(N5Cc6cc7c(cc6C5)C(=O)N(C5CCC(=O)NC5=O)C7=O)CC4)CC3)cc2F)N1CC(F)F (stereo partly drawn) [E 406, 6-(1-(4-(6-((1S,3R)-2-(2,2-difluoroethyl)-3-methyl-2,3,4,9-tetrahydro-1H-pyrido[3,4-b]indol-1-yl)-5-fluoropyridin-3-yl)cyclohexane-1-carbonyl)piperidin-4-yl)-2-(2,6-dioxopiperidin-3-yl)-6,7-dihydropyrrolo[3,4-f]isoindole-1,3(2H,5H)-dione] | – | > 100 |
| O=C1CCC(N2C(=O)c3cc4c(cc3C2=O)CN(CC(=O)N2CC3(CCN(c5ccc([C@@H]6c7ccc(O)cc7CC[C@@H]6c6ccccc6)cc5)CC3)C2)C4)C(=O)N1 (mixture of isomers) [E 9, Rac-2-(2,6-dioxopiperidin-3-yl)-6-(2-(7-(4-((1R,2S)-6-hydroxy-2-phenyl-1,2,3,4-tetrahydronaphthalen-1-yl)phenyl)-2,7-diazaspiro[3.5]nonan-2-yl)-2-oxoethyl)-6,7-dihydropyrrolo[3,4-f]isoindole-1,3(2H,5H)-dione] | < 10 | – |
| C[C@@H]1Cc2c([nH]c3ccccc23)[C@@H](c2cnc(N3CCC4(CC3)CN(C(=O)CN3Cc5cc6c(cc5C3)C(=O)N(C3CCC(=O)NC3=O)C6=O)C4)nc2)N1CC(F)(F)F (stereo partly drawn) [E 255, 2-(2,6-dioxopiperidin-3-yl)-6-(2-(7-(5-((1R,3R)-3-methyl-2-(2,2,2-trifluoroethyl)-2,3,4,9-tetrahydro-1H-pyrido[3,4-b]indol-1-yl)pyrimidin-2-yl)-2,7-diazaspiro[3.5]nonan-2-yl)-2-oxoethyl)-6,7-dihydropyrrolo[3,4-f]isoindole-1,3(2H,5H)-dione] | < 10 | – |
| C[C@@H]1Cc2c([nH]c3ccccc23)[C@@H](c2c(F)cc(N3CC(CC(=O)N4Cc5cc6c(cc5C4)C(=O)N(C4CCC(=O)NC4=O)C6)C3)cc2F)N1CC(F)F (stereo partly drawn) [E 102, 3-(6-(2-(1-(4-((1R,3R)-2-(2,2-difluoroethyl)-3-methyl-2,3,4,9-tetrahydro-1H-pyrido[3,4-b]indol-1-yl)-3,5-difluorophenyl)azetidin-3-yl)acetyl)-1-oxo-3,5,6,7-tetrahydropyrrolo[3,4-f]isoindol-2(1H)-yl)piperidine-2,6-dione] | > 100 | – |
| CN(C1CCC(CN2Cc3cc4c(cc3C2)C(=O)N(C2CCC(=O)NC2=O)C4=O)CC1)C1CCN(c2ccc([C@@H]3c4ccc(O)cc4CC[C@@H]3c3ccccc3)cc2)CC1 (stereo partly drawn) [E 289, 2-(2,6-dioxopiperidin-3-yl)-6-((4-((1-(4-((1R,2S)-6-hydroxy-2-phenyl-1,2,3,4-tetrahydronaphthalen-1-yl)phenyl)piperidin-4-yl)(methyl)amino)cyclohexyl)methyl)-6,7-dihydropyrrolo[3,4-f]isoindole-1,3(2H,5H)-dione] | > 100 | – |
| C[C@@H]1Cc2c([nH]c3ccccc23)[C@@H](c2c(F)cc(N3CCC4(CCN(CC(=O)N5Cc6cc7c(cc6C5)C(=O)N(C5CCC(=O)NC5=O)C7)C4)C3)cc2F)N1CC(F)F (stereo partly drawn) [E 75, 3-(6-(2-(7-(4-((1R,3R)-2-(2,2-difluoroethyl)-3-methyl-2,3,4,9-tetrahydro-1H-pyrido[3,4-b]indol-1-yl)-3,5-difluorophenyl)-2,7-diazaspiro[4.4]nonan-2-yl)acetyl)-1-oxo-3,5,6,7-tetrahydropyrrolo[3,4-f]isoindol-2(1H)-yl)piperidine-2,6-dione] | 10 to 100 | – |
| Cn1cc(-c2ccc3c(c2)CC[C@H](c2ccccc2)[C@@H]3c2ccc(N3CCC4(CCN(C(=O)CN5Cc6cc7c(cc6C5)C(=O)N(C5CCC(=O)NC5=O)C7=O)CC4)CC3)cc2)cn1 (stereo partly drawn) [E 509, 2-(2,6-dioxopiperidin-3-yl)-6-(2-(9-(4-((1R,2S)-6-(1-methyl-1H-pyrazol-4-yl)-2-phenyl-1,2,3,4-tetrahydronaphthalen-1-yl)phenyl)-3,9-diazaspiro[5.5]undecan-3-yl)-2-oxoethyl)-6,7-dihydropyrrolo[3,4-f]isoindole-1,3(2H,5H)-dione] | – | > 100 |
| O=C1CCC(N2C(=O)c3cc4c(cc3C2=O)CN(C(=O)c2ccc(CC(=O)N3CCCC(Oc5ccc([C@@H]6c7ccc(O)cc7CC[C@@H]6c6ccccc6)cc5)C3)cc2)C4)C(=O)N1 (mixture of isomers) [E 24, Rac-2-(2,6-dioxopiperidin-3-yl)-6-(4-(2-(3-(4-((1R,2S)-6-hydroxy-2-phenyl-1,2,3,4-tetrahydronaphthalen-1-yl)phenoxy)piperidin-1-yl)-2-oxoethyl)benzoyl)-6,7-dihydropyrrolo[3,4-f]isoindole-1,3(2H,5H)-dione] | 10 to 100 | – |
| O=C1CCC(N2C(=O)c3cc4c(cc3C2=O)CN(CC(=O)N2CC3(CCN(c5ccc([C@@H]6c7ccc(O)cc7CC[C@@H]6c6ccc(F)cc6)cc5)CC3)C2)CC4)C(=O)N1 (mixture of isomers) [E 164, rac-2-(2,6-dioxopiperidin-3-yl)-6-(2-(7-(4-((1R,2S)-2-(4-fluorophenyl)-6-hydroxy-1,2,3,4-tetrahydronaphthalen-1-yl)phenyl)-2,7-diazaspiro[3.5]nonan-2-yl)-2-oxoethyl)-5,6,7,8-tetrahydro-1H-pyrrolo[3,4-g]isoquinoline-1,3(2H)-dione] | 10 to 100 | – |
